Source: patent US12122785B2, “Substituted pyridines, pyridazines, pyrimidines, and 1,2,4-triazines as TYK2 inhibitors” (Sudo Biosciences Limited, priority 2021, dated 2024)

Tests used:
[1] = test system: TYK2 pseudokinase (JH2); IL-23-stimulated HEK-Blue IL-23 cells; test: HEK-Blue IL-23 reporter assay (STAT3-inducible SEAP) for profiling TYK2 pseudokinase (JH2) inhibition; type: cell-based; conditions: 10 ng/mL human recombinant IL-23, SEAP readout, read-out: IL23 (TYK2 inhibitory activity, IC50)
How it was run: (§1)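 Cells plated 20-22 h at 37 °C, 5% CO2 in DMEM with 10% heat-inactivated FBS, then pretreated with serially diluted compound for 60 min. Stimulation: 10 ng/mL human recombinant IL-23 for 22-24 h, or 1 ng/mL human recombinant IFNα for 16-18 h. SEAP induction read with QUANTI-Blue.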

[2] = test system: TYK2 pseudokinase (JH2); IFNα-stimulated HEK-Blue IFNα/β cells; test: HEK-Blue IFNα/β reporter assay (STAT1-inducible SEAP) for profiling TYK2 pseudokinase (JH2) inhibition; type: cell-based; conditions: 1 ng/mL human recombinant IFNα, SEAP readout, read-out: IFNα (TYK2 inhibitory activity, IC50)
How it was run: as §1

TYK2 kinase domain (JH1) = molecular target: T1, TYK2 kinase domain (JH1) (Homo sapiens, UniProt P29597); test: HTRF-based selectivity assay, TYK2 catalytic domain; type: biochemical; conditions: 20 μM ATP
T1 construct: recombinant purified His or GST-tagged catalytic domain for each enzyme; made in house
T1 sequence (P29597 897-1176 limits assumed): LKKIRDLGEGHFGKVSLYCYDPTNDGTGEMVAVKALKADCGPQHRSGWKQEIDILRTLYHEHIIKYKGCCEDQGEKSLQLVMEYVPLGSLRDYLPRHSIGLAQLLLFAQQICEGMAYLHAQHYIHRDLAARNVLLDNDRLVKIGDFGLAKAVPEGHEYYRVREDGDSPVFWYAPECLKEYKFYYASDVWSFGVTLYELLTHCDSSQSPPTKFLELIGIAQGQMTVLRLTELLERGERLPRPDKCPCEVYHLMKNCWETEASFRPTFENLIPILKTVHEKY
Experimental: (§2) Example B-2: HTRF-Based Selectivity Assay
(§3) The ability of compounds to inhibit the activity of JAK1, JAK2, JAK3 and TYK2 is measured using a recombinant purified His or GST-tagged catalytic domain for each enzyme (JAK1, JAK2 and TYK2 are generated in-house; JAK3 was purchased from Carna biosciences, Cat #08-046) in an HTRF format biochemical assay. The reactions employs a commercial peptide substrate from Cisbio (Cat #62TK0PEC). The basic assay protocol is as follows: first, 2.5 μL of diluted compounds (4×) in DMSO are dispensed into a 384-well Optiplate. Next, 2.5 μL of enzyme (final concentrations for enzymes are: TYK2—700 ng/mL, JAK1—80.6 ng/mL, JAK2—2.1 ng/mL and JAK3—171.8 ng/mL) is added and incubated at RT for 5-20 min. Finally, 5 μl of mixture of 2×ATP [Final concentration 20 μM for TYK2, 21.43 μM for JAK1, 14.7 μM for JAK2 and 2.12 μM for JAK3]+2× Substrate [Final concentration 217 nM for TYK2, 454.7 nM for JAK1, 200 nM for JAK2 and 257.4 nM for JAK3] is added to 384 well Optiplate. Composition of Kinase assay buffer used in the assay is as follows: HEPES 50 mM, EGTA 1 mM, MgCl2 10 mM, DTT 2 mM, Tween-20 0.01% and water. Then the plates are shaken and then incubated at 26.5° C. for 60 min.

JAK1 kinase domain (JH1) = molecular target: T2, JAK1 kinase domain (JH1) (Homo sapiens, UniProt P23458); test: HTRF-based selectivity assay, JAK1 catalytic domain; type: biochemical; conditions: 21.43 μM ATP, read-out: JAK-JHI (IC50)
T2 construct: recombinant purified His or GST-tagged catalytic domain for each enzyme; made in house
T2 sequence (P23458 875-1153 limits assumed): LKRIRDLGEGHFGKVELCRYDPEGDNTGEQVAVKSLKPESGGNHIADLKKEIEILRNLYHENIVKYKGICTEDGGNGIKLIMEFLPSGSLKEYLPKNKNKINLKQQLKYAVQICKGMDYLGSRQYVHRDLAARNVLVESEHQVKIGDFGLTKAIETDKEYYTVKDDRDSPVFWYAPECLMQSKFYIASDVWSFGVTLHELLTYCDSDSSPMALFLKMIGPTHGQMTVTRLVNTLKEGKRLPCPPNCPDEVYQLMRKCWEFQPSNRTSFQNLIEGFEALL
Experimental: as §2, §3

JAK2 kinase domain (JH1) = molecular target: T3, JAK2 kinase domain (JH1) (Homo sapiens, UniProt O60674); test: HTRF-based selectivity assay, JAK2 catalytic domain; type: biochemical; conditions: 14.7 μM ATP
T3 construct: recombinant purified His or GST-tagged catalytic domain for each enzyme; made in house
T3 sequence (O60674 849-1124 limits assumed): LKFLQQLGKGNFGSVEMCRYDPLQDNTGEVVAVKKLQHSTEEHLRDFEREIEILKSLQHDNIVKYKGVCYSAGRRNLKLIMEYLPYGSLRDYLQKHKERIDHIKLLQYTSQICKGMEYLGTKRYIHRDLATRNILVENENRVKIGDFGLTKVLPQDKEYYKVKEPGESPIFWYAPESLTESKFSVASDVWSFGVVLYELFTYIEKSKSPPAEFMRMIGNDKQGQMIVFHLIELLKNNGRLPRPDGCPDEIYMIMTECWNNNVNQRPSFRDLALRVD
Experimental: as §2, §3

JAK3 kinase domain (JH1) = molecular target: T4, JAK3 kinase domain (JH1) (Homo sapiens, UniProt P52333); test: HTRF-based selectivity assay, JAK3 catalytic domain; type: biochemical; conditions: 2.12 μM ATP
T4 construct: recombinant purified His or GST-tagged catalytic domain for each enzyme; purchased Carna biosciences 08-046
T4 sequence (P52333 822-1111 limits assumed): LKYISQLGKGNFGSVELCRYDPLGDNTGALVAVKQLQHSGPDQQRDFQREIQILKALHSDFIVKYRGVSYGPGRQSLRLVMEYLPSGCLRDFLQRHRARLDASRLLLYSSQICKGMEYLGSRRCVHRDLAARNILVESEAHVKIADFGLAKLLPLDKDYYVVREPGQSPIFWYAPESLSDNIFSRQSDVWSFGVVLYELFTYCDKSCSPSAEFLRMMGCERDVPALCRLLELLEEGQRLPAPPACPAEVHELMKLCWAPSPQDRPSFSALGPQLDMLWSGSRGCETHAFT
Experimental: as §2, §3

[3] = test system: IL-2-stimulated HEK-Blue IL-2 reporter cells; test: HEK-Blue IL-2 reporter assay (STAT5-inducible SEAP) for determining selectivity; type: cell-based; conditions: 4 ng/mL human recombinant IL-2, 24 hours
How it was run: (§4)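 Cells were plated for 20-22 h, then pretreated with serially diluted compound for 60 min. They were stimulated for 24 h with 4 ng/mL human recombinant IL-2 or 50 ng/mL human recombinant IFNγ, and SEAP induction was read with QUANTI-Blue.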

[4] = test system: IFNγ-stimulated HEK-Blue IFNγ reporter cells; test: HEK-Blue IFNγ reporter assay (STAT1-inducible SEAP) for determining selectivity; type: cell-based; conditions: 50 ng/mL human recombinant IFNγ, 24 hours, read-out: IFN-γ SEAP selectivity assay IC50
How it was run: as §4

Row | Structure (SMILES) | IC50 (TYK2 kinase domain (JH1)) [µM] | IC50 (JAK1 kinase domain (JH1)) [µM] | IC50 (JAK2 kinase domain (JH1)) [µM] | IC50 (JAK3 kinase domain (JH1)) [µM] | IC50 [1] [µM] | IC50 [2] [µM] | IC50 [3] [µM] | IC50 [4] [µM]
1 | [2H]C([2H])([2H])NC(=O)c1cnc(NC(=O)C2CC2)nc1Nc1cccc2c1N(C)Cc1cn(C)nc1-2 [Compound 22, 2-(cyclopropanecarboxamido)-4-((2,5-dimethyl-4,5-dihydro-2H-pyrazolo[4,3-c]quinolin-6-yl)amino)-N-(methyl-d3)pyrimidine-5-carboxamide] | > 1 | > 1 | > 1 | > 1 | < 0.03 | < 0.03 | > 1 | > 1
2 | [2H]C([2H])([2H])NC(=O)c1cnc(NC(=O)C2CC2)cc1Nc1cccc2c1N(C)Cc1c[nH]nc1-2 [Compound 23, 6-(cyclopropanecarboxamido)-N-(methyl-d3)-4-((5-methyl-4,5-dihydro-2H-pyrazolo[4,3-c]quinolin-6-yl)amino)nicotinamide] | > 1 | > 1 | > 1 | > 1 | < 0.03 | < 0.03 | > 1 | > 1
3 | [2H]C([2H])([2H])NC(=O)c1cnc(NC(=O)C2(O)CC2)cc1Nc1cccc2c1N(C)Cc1cn(C)nc1-2 [Compound 21, 4-((2,5-dimethyl-4,5-dihydro-2H-pyrazolo[4,3-c]quinolin-6-yl)amino)-6-(1-hydroxycyclopropane-1-carboxamido)-N-(methyl-d3)nicotinamide] | > 1 | > 1 | > 1 | > 1 | 0.03 to 0.3 | 0.03 to 0.3 | > 1 | > 1
4 | CN1Cc2cn(C)nc2-c2cccc(Nc3cc(NC(=O)C4CC4)ncc3C(N)=O)c21 [Compound 17, 6-(cyclopropanecarboxamido)-4-((2,5-dimethyl-4,5-dihydro-2H-pyrazolo[4,3-c]quinolin-6-yl)amino)nicotinamide] | 0.03 to 0.3 | < 0.03 | < 0.03 | < 0.03 | < 0.03 | < 0.03 | < 0.03 | < 0.03
5 | [2H]C([2H])([2H])NC(=O)c1nnc(NC(=O)C2CC2)cc1Nc1cccc2c1N(C)Cc1cn(C([2H])([2H])[2H])nc1-2 [Compound 20, 6-(cyclopropanecarboxamido)-N-(methyl-d3)-4-((5-methyl-2-(methyl-d3)-4,5-dihydro-2H-pyrazolo[4,3-c]quinolin-6-yl)amino)pyridazine-3-carboxamide] | > 1 | > 1 | > 1 | > 1 | < 0.03 | < 0.03 | 0.3 to 1 | 0.03 to 0.3
6 | [2H]C([2H])([2H])NC(=O)c1cnc(NC(=O)C2CC2)cc1Nc1cccc2c1N(C([2H])([2H])[2H])Cc1cn(C)nc1-2 [Compound 26, 6-(cyclopropanecarboxamido)-N-(methyl-d3)-4-((2-methyl-5-(methyl-d3)-4,5-dihydro-2H-pyrazolo[4,3-c]quinolin-6-yl)amino)nicotinamide] | > 1 | > 1 | > 1 | > 1 | < 0.03 | < 0.03 | > 1 | 0.03 to 0.3
7 | [2H]C([2H])([2H])NC(=O)c1cnc(NC(=O)C2CC2)cc1Nc1nccc2c1N(C([2H])([2H])[2H])Cc1cn(C)nc1-2 [Compound 66, 6-(cyclopropanecarboxamido)-N-(methyl-d3)-4-((2-methyl-5-(methyl-d3)-4,5-dihydro-2H-pyrazolo[4,3-c][1,7]naphthyridin-6-yl)amino)nicotinamide] | > 1 | > 1 | > 1 | > 1 | < 0.03 | < 0.03 | > 1 | 0.3 to 1

Further lines, with some results ahead:

Row | IC50 (TYK2 kinase domain (JH1)) [µM] | IC50 (JAK1 kinase domain (JH1)) [µM] | IC50 (JAK2 kinase domain (JH1)) [µM] | IC50 (JAK3 kinase domain (JH1)) [µM] | Structure (SMILES) | IC50 [1] [µM] | IC50 [2] [µM] | IC50 [3] [µM] | IC50 [4] [µM]
8 | > 1 | > 1 | > 1 | > 1 | CNC(=O)c1nnc(NC(=O)C2CC2)cc1Nc1cccc2c1OCc1cnn(C)c1-2 [Compound 50, 6-(cyclopropanecarboxamido)-N-methyl-4-((1-methyl-1,4-dihydrochromeno[4,3-c]pyrazol-6-yl)amino)pyridazine-3-carboxamide] | 0.3 to 1 | 0.3 to 1 | 0.03 to 0.3 | 0.3 to 1
9 | > 1 | > 1 | > 1 | > 1 | [2H]C([2H])([2H])NC(=O)c1cnc(Nc2ccc(F)cn2)cc1Nc1cccc2c1OCc1cn(C)nc1-2 [Compound 7, 6-((5-fluoropyridin-2-yl)amino)-N-(methyl-d3)-4-((2-methyl-2,4-dihydrochromeno[4,3-c]pyrazol-6-yl)amino)nicotinamide] | 0.03 to 0.3 | 0.3 to 1 | > 1 | 0.3 to 1
10 | 0.3 to 1 | > 1 | > 1 | > 1 | CNC(=O)c1nnc(Nc2ccc(F)cn2)cc1Nc1cccc2c1OCc1cn(C)nc1-2 [Compound 1, 6-((5-fluoropyridin-2-yl)amino)-N-methyl-4-((2-methyl-2,4-dihydrochromeno[4,3-c]pyrazol-6-yl)amino)pyridazine-3-carboxamide] | 0.03 to 0.3 | 0.03 to 0.3 | 0.3 to 1 | 0.3 to 1
11 | > 1 | > 1 | > 1 | > 1 | CNC(=O)c1nnc(Nc2ccc(F)cn2)cc1Nc1cccc2c1OCc1cnn(C)c1-2 [Compound 49, 6-((5-fluoropyridin-2-yl)amino)-N-methyl-4-((1-methyl-1,4-dihydrochromeno[4,3-c]pyrazol-6-yl)amino)pyridazine-3-carboxamide] | 0.03 to 0.3 | > 1 | 0.3 to 1 | < 0.03
12 | > 1 | > 1 | > 1 | > 1 | [2H]C([2H])([2H])NC(=O)c1cnc(NC(=O)C2CC2)cc1Nc1cccc2c1N(C)Cc1cnn(C)c1-2 [Compound 51, 6-(cyclopropanecarboxamido)-4-((1,5-dimethyl-4,5-dihydro-1H-pyrazolo[4,3-c]quinolin-6-yl)amino)-N-(methyl-d3)nicotinamide] | < 0.03 | 0.03 to 0.3 | > 1 | > 1
13 | > 1 | > 1 | > 1 | > 1 | [2H]C([2H])([2H])NC(=O)c1cnc(Nc2cc(C)nc(C)n2)cc1Nc1cccc2c1N(C)Cc1cn(C)nc1-2 [Compound 16, 4-((2,5-dimethyl-4,5-dihydro-2H-pyrazolo[4,3-c]quinolin-6-yl)amino)-6-((2,6-dimethylpyrimidin-4-yl)amino)-N-(methyl-d3)nicotinamide] | < 0.03 | < 0.03 | 0.3 to 1 | 0.03 to 0.3
14 | > 1 | > 1 | > 1 | > 1 | [2H]C([2H])([2H])NC(=O)c1nnc(Nc2ccc(F)cn2)cc1Nc1cccc2c1OCc1cn(C)nc1-2 [Compound 5, 6-((5-fluoropyridin-2-yl)amino)-N-(methyl-d3)-4-((2-methyl-2,4-dihydrochromeno[4,3-c]pyrazol-6-yl)amino)pyridazine-3-carboxamide] | < 0.03 | 0.03 to 0.3 | > 1 | > 1
